Reference: BindingDB's records for doi:10.1016/s0960-894x(02)00205-6 (Southern Methodist University, 2002)

Assay: Inhibitory activity against class A TEM-1 beta-lactamase

O=C(O)C1=C(Sc2ccccc2)CS(=O)(=O)[C@@H]2/C(=C\c3ccccn3)C(=O)N12 [Sodium; (R)-5,5,8-trioxo-3-phenylsulfanyl-7-[1-pyridin-2-yl-meth-(Z)-ylidene]-5lambda*6*-thia-1-aza-bicyclo[4.2.0]oct-2-ene-2-carboxylate]
IC50: 12 nM

O=C(O)C1=C(Cl)CS(=O)(=O)[C@@H]2/C(=C\c3ccccn3)C(=O)N12 [Sodium; (R)-3-chloro-5,5,8-trioxo-7-[1-pyridin-2-yl-meth-(Z)-ylidene]-5lambda*6*-thia-1-aza-bicyclo[4.2.0]oct-2-ene-2-carboxylate]
IC50: 1820 nM

O=C(/C=C/C1=C(C(=O)O)N2C(=O)/C(=C/c3ccccn3)[C@H]2S(=O)(=O)C1)NCCO [Sodium; (R)-3-[(E)-2-(2-hydroxy-ethylcarbamoyl)-vinyl]-5,5,8-trioxo-7-[1-pyridin-2-yl-meth-(Z)-ylidene]-5lambda*6*-thia-1-aza-bicyclo[4.2.0]oct-2-ene-2-carboxylate]
IC50: 70 nM

NC(=O)/C=C/C1=C(C(=O)O)N2C(=O)/C(=C/c3ccccn3)[C@H]2S(=O)(=O)C1 [Sodium; (R)-3-((E)-2-carbamoyl-vinyl)-5,5,8-trioxo-7-[1-pyridin-2-yl-meth-(Z)-ylidene]-5lambda*6*-thia-1-aza-bicyclo[4.2.0]oct-2-ene-2-carboxylate]
IC50: 262 nM

O=C(/C=C/C1=C(C(=O)O)N2C(=O)/C(=C/c3ccccn3)[C@H]2S(=O)(=O)C1)Nc1ccc(O)cc1 [Sodium; (R)-3-[(E)-2-(4-hydroxy-phenylcarbamoyl)-vinyl]-5,5,8-trioxo-7-[1-pyridin-2-yl-meth-(Z)-ylidene]-5lambda*6*-thia-1-aza-bicyclo[4.2.0]oct-2-ene-2-carboxylate]
IC50: 110 nM

N=C(N)NCCNC(=O)C=CC1=C(C(=O)O)N2C(=O)C(=Cc3ccccn3)[C@H]2S(=O)(=O)C1 [Sodium; (R)-3-[(E)-2-(2-guanidino-ethylcarbamoyl)-vinyl]-5,5,8-trioxo-7-[1-pyridin-2-yl-meth-(Z)-ylidene]-5lambda*6*-thia-1-aza-bicyclo[4.2.0]oct-2-ene-2-carboxylate]
IC50: 8.3 nM

O=C(/C=C/C1=C(C(=O)O)N2C(=O)/C(=C/c3ccccn3)[C@H]2S(=O)(=O)C1)NC1CC1 [Sodium; (R)-3-((E)-2-cyclopropylcarbamoyl-vinyl)-5,5,8-trioxo-7-[1-pyridin-2-yl-meth-(Z)-ylidene]-5lambda*6*-thia-1-aza-bicyclo[4.2.0]oct-2-ene-2-carboxylate]
IC50: 240 nM

CS(=O)(=O)C1=C(C(=O)O)N2C(=O)/C(=C/c3ccccn3)[C@H]2S(=O)(=O)C1 [Sodium; (R)-3-methanesulfonyl-5,5,8-trioxo-7-[1-pyridin-2-yl-meth-(Z)-ylidene]-5lambda*6*-thia-1-aza-bicyclo[4.2.0]oct-2-ene-2-carboxylate]
IC50: 7.6 nM

O=C(/C=C/C1=C(C(=O)O)N2C(=O)/C(=C/c3ccccn3)[C@H]2S(=O)(=O)C1)NO [Sodium; (R)-3-((E)-2-hydroxycarbamoyl-vinyl)-5,5,8-trioxo-7-[1-pyridin-2-yl-meth-(Z)-ylidene]-5lambda*6*-thia-1-aza-bicyclo[4.2.0]oct-2-ene-2-carboxylate]
IC50: 7690 nM

O=C(/C=C/C1=C(C(=O)O)N2C(=O)/C(=C/c3ccccn3)[C@H]2S(=O)(=O)C1)NCC(F)(F)F [Sodium; (R)-5,5,8-trioxo-7-[1-pyridin-2-yl-meth-(Z)-ylidene]-3-[(E)-2-(2,2,2-trifluoro-ethylcarbamoyl)-vinyl]-5lambda*6*-thia-1-aza-bicyclo[4.2.0]oct-2-ene-2-carboxylate]
IC50: 78 nM

NCCCNC(=O)/C=C/C1=C(C(=O)O)N2C(=O)/C(=C/c3ccccn3)[C@H]2S(=O)(=O)C1 [Sodium; (R)-3-[(E)-2-(3-amino-propylcarbamoyl)-vinyl]-5,5,8-trioxo-7-[1-pyridin-2-yl-meth-(Z)-ylidene]-5lambda*6*-thia-1-aza-bicyclo[4.2.0]oct-2-ene-2-carboxylate]
IC50: 1590 nM

O=C(/C=C/C1=C(C(=O)O)N2C(=O)/C(=C/c3ccccn3)[C@H]2S(=O)(=O)C1)Nc1c(F)c(F)c(F)c(F)c1F [Sodium; (R)-5,5,8-trioxo-3-((E)-2-pentafluorophenylcarbamoyl-vinyl)-7-[1-pyridin-2-yl-meth-(Z)-ylidene]-5lambda*6*-thia-1-aza-bicyclo[4.2.0]oct-2-ene-2-carboxylate]
IC50: 4280 nM

O=C(O)C1=C(C(=O)O)N2C(=O)/C(=C/c3ccccn3)[C@H]2S(=O)(=O)C1 [Disodium; (R)-3-carboxy-5,5,8-trioxo-7-[1-pyridin-2-yl-meth-(Z)-ylidene]-5lambda*6*-thia-1-aza-bicyclo[4.2.0]oct-2-ene-2-carboxylate]
IC50: 10400 nM

O=C(/C=C/C1=C(C(=O)O)N2C(=O)/C(=C/c3ccccn3)[C@H]2S(=O)(=O)C1)NCc1ccccc1 [Sodium; (R)-3-((E)-2-benzylcarbamoyl-vinyl)-5,5,8-trioxo-7-[1-pyridin-2-yl-meth-(Z)-ylidene]-5lambda*6*-thia-1-aza-bicyclo[4.2.0]oct-2-ene-2-carboxylate]
IC50: 1400 nM

O=C(O)C1=C(I)CS(=O)(=O)[C@@H]2/C(=C\c3ccccn3)C(=O)N12 [Sodium; (R)-3-iodo-5,5,8-trioxo-7-[1-pyridin-2-yl-meth-(Z)-ylidene]-5lambda*6*-thia-1-aza-bicyclo[4.2.0]oct-2-ene-2-carboxylate]
IC50: 1280 nM

O=C(O)C1=C(Br)CS(=O)(=O)[C@@H]2/C(=C\c3ccccn3)C(=O)N12 [Sodium; (R)-3-bromo-5,5,8-trioxo-7-[1-pyridin-2-yl-meth-(Z)-ylidene]-5lambda*6*-thia-1-aza-bicyclo[4.2.0]oct-2-ene-2-carboxylate]
IC50: 791 nM

O=C(O)C1=C(c2cccs2)CS(=O)(=O)[C@@H]2/C(=C\c3ccccn3)C(=O)N12 [Sodium; (R)-5,5,8-trioxo-7-[1-pyridin-2-yl-meth-(Z)-ylidene]-3-thiophen-2-yl-5lambda*6*-thia-1-aza-bicyclo[4.2.0]oct-2-ene-2-carboxylate]
IC50: 3540 nM

O=C(O)C1=C(S(=O)(=O)c2ccccc2)CS(=O)(=O)[C@@H]2/C(=C\c3ccccn3)C(=O)N12 [Sodium; (R)-3-benzenesulfonyl-5,5,8-trioxo-7-[1-pyridin-2-yl-meth-(Z)-ylidene]-5lambda*6*-thia-1-aza-bicyclo[4.2.0]oct-2-ene-2-carboxylate]
IC50: 9.4 nM

O=C(O)C1=C(c2ccccc2)CS(=O)(=O)[C@@H]2/C(=C\c3ccccn3)C(=O)N12 [Sodium; (R)-5,5,8-trioxo-3-phenyl-7-[1-pyridin-2-yl-meth-(Z)-ylidene]-5lambda*6*-thia-1-aza-bicyclo[4.2.0]oct-2-ene-2-carboxylate]
IC50: 9140 nM

NNC(=O)/C=C/C1=C(C(=O)O)N2C(=O)/C(=C/c3ccccn3)[C@H]2S(=O)(=O)C1 [Sodium; (R)-3-((E)-2-hydrazinocarbonyl-vinyl)-5,5,8-trioxo-7-[1-pyridin-2-yl-meth-(Z)-ylidene]-5lambda*6*-thia-1-aza-bicyclo[4.2.0]oct-2-ene-2-carboxylate]
IC50: 390 nM

O=C(O)C1=C(F)CS(=O)(=O)[C@@H]2/C(=C\c3ccccn3)C(=O)N12 [Sodium; (R)-3-fluoro-5,5,8-trioxo-7-[1-pyridin-2-yl-meth-(Z)-ylidene]-5lambda*6*-thia-1-aza-bicyclo[4.2.0]oct-2-ene-2-carboxylate]
IC50: 1840 nM

CSC1=C(C(=O)O)N2C(=O)/C(=C/c3ccccn3)[C@H]2S(=O)(=O)C1 [Sodium; (R)-3-methylsulfanyl-5,5,8-trioxo-7-[1-pyridin-2-yl-meth-(Z)-ylidene]-5lambda*6*-thia-1-aza-bicyclo[4.2.0]oct-2-ene-2-carboxylate]
IC50: 1060 nM

CN1CCN(C(=O)/C=C/C2=C(C(=O)O)N3C(=O)/C(=C/c4ccccn4)[C@H]3S(=O)(=O)C2)CC1 [Sodium; (R)-3-[(E)-3-(4-methyl-piperazin-1-yl)-3-oxo-propenyl]-5,5,8-trioxo-7-[1-pyridin-2-yl-meth-(Z)-ylidene]-5lambda*6*-thia-1-aza-bicyclo[4.2.0]oct-2-ene-2-carboxylate]
IC50: 53 nM

O=C(O)C1=CCS(=O)(=O)[C@@H]2/C(=C\c3ccccn3)C(=O)N12 [Sodium; (R)-5,5,8-trioxo-7-[1-pyridin-2-yl-meth-(Z)-ylidene]-5lambda*6*-thia-1-aza-bicyclo[4.2.0]oct-2-ene-2-carboxylate]
IC50: 18500 nM
